How the values were obtained:
[1] = system: Murine macrophage-like RAW 264.7 cells; test: TNF release from RAW 264.7 cells (L929 cytotoxicity bioassay); format: cell-based; settings: for TNF release by synthetic peptide fragment of the B box: 10 μg/ml synthetic peptide, 10 hours (FIG. 3); for TNF release: 1 μg/ml protein, 8 hours, RAW 264.7 cells (FIG. 1)
Protocol: Murine macrophage-like RAW 264.7 cells (American Type Culture Collection, Rockville, Md.) were cultured in RPMI 1640 medium (Life Technologies, Grand Island N.Y.) supplemented with 10% fetal bovine serum (Gemini, Catabasas, Calif.), penicillin and streptomycin (Life Technologies) and were used at 90% confluence in serum-free Opti-MEM I medium (Life Technologies, Grand Island, N.Y.). […] Polymyxin B was not used in experiments of synthetic peptide studies.
TNF release was measured by a standard murine fibroblast L929 (ATCC, American Type Culture Collection, Rockville, Md.) cytotoxicity bioassay (Bianchi et al., Journal of Experimental Medicine 183:927-936, 1996) with the minimum detectable concentration of 30 pg/ml. Recombinant mouse TNF was obtained from R&D system Inc., (Minneapolis, MN). Murine fibroblast L929 cells (ATCC) were cultured in DMEM (Life Technologies, Grand Island, N.Y.) supplemented with 10% fetal bovine serum (Gemini, Catabasas, Calif.), penicillin (50 units/ml) and streptomycin (50 μg/ml) (Life Technologies) in a humidified incubator with 5% CO2.
The effect of the mutants on TNF release from Murine macrophage-like RAW 264.7 cells (ATCC) was carried out as follows. RAW 264.7 cells were cultured in RPMI 1640 medium (Life Technologies, Grand Island N.Y.) supplemented with 10% fetal bovine serum (Gemini, Catabasas, Calif.), penicillin and streptomycin (Life Technologies). Polymyxin (Sigma, St. Louis, Mo.) was added at 100 units/ml to suppress the activity of any contaminating LPS. Cells were incubated with 1 μg/ml of full length (wild-type) HMGB1 and each HMGB1 mutant protein in Opti-MEM I medium for 8 hours, and conditioned supernatants (containing TNF which had been released from the cells) were collected and TNF released from the cells was measured by a standard murine fibroblast L929 (ATCC) cytotoxicity bioassay (Bianchi et al., supra) with the minimum detectable concentration of 30 pg/ml. Recombinant mouse TNF was obtained from R & D Systems Inc., (Minneapolis, Minn.) and used as control in these experiments. Data in FIG. 1 are all presented as mean+SEM unless otherwise indicated. (=6−10).
To further examine the effect of HMGB1 B box on cytokine production, varying amounts of HMGB1 B box were evaluated for the effects on TNF, IL-1B, and IL-6 production in murine macrophage-like RAW 264.7 cells. Conditioned media were harvested and measured for TNF, IL-1β and IL-6 levels. TNF levels were measured as described herein, and IL-1β and IL-6 levels were measured using the mouse IL-1β and IL-6 enzyme-linked immunosorbent assay (ELISA) kits (R&D System Inc., Minneapolis, 1) and N>5 for all experiments.
The kinetics of B box-induced TNF release was also examined. TNF release and TNF mRNA expression was measured in RAW 264.7 cells induced by B box polypeptide or GST tag polypeptide only used as a control (vector) (10 μg/ml) for 0 to 48 hours. Supernatants were analyzed for TNF protein levels by an L929 cytotoxicity assay (N=3-5) as described herein. For mRNA measurement, cells were plated in 100 mm plate and treated in Opti-MEM I medium containing B box polypeptide or the vector alone for 0, 4, 8, or 24 hours, as indicated in FIG. 2D. The vector only sample was assayed at the 4 hour time point. Cells were scraped off the plate and total RNA was isolated by RNAzol B method in accordance with the manufacturer's instructions (Tel-Test “B”, Inc., Friendswood, Tex.). TNF (287 bp) was measured by RNase protection assay (Ambion, Austin, Tex.). Equal loading and the integrity of RNA was verified by ethidium bromide staining of the RNA sample on agarose-formaldehyde gel. […] TNF mRNA expression was maximal at 4 hours and decreased at 8 and 24 hours. […] A similar study was carried out measuring TNF protein released from RAW 264.7 cells 0, 4, 8, 24, 32 or 48 hours after administration of B box or vector only (GST tag), using the L929 cytotoxicity assay described herein. […] Data are representative of three separate experiments. […]

RAW 264.7 cells = settings: polymyxin B alone, 100-1,000 units/ml; cited from earlier work

| Molecule | TNF release by synthetic peptide fragment of the B box [1] | TNF release [1] | other results |
| --- | --- | --- | --- |
| 16-25: Synthetic peptide, amino acids 16-25 of the HMGB1 B box (SEQ ID NO: 20) (LFCSEYRPKI; listed as Homo sapiens) | did not induce TNF release |  |  |
| 30-49: Synthetic peptide, amino acids 30-49 of the HMGB1 B box (SEQ ID NO: 20) (PGLSIGDVAKKLGEMWNNTA; listed as Homo sapiens) | did not induce TNF release |  |  |
| 45-64: Synthetic peptide, amino acids 45-64 of the HMGB1 B box (SEQ ID NO: 20) (WNNTAADDKQPYEKKAAKLK; listed as Homo sapiens) | did not induce TNF release |  |  |
| 60-74: Synthetic peptide, amino acids 60-74 of the HMGB1 B box (SEQ ID NO: 20) (AAKLKEKYEKDIAAY; listed as Homo sapiens) | did not induce TNF release |  |  |
| Polymyxin B |  |  | cell viability (RAW 264.7 cells): did not influence cell viability |
| fkdpnapkrlpsafflfcse (FKDPNAPKRLPSAFFLFCSE; listed as Homo sapiens) [1-20-mer] | TNF-stimulating activity was retained |  | TNF stimulating activity relative to full length synthetic B box (1-74-mer) or full length HMGB1 ([1]; peptide 10 μg/ml, 10 hours): less potent |
| A box: Human HMGB1 mutant containing only the A box (amino terminus + A box), SEQ ID NO: 21 (protein, listed as Homo sapiens) MGKGDPKKPTGKMSSYAFFVQTCREEHKKKHPDASVNFSEFSKKCSERWKTMSAKEKGKFEDMAKADKARYEREMKTYIPPKGET |  | only weakly activated TNF release |  |
| wild-type HMGB1: Recombinant full length human HMGB1, SEQ ID NO: 18 (protein, listed as Homo sapiens) MGKGDPKKPTGKMSSYAFFVQTCREEHKKKHPDASVNFSEFSKKCSERWKTMSAKEKGKFEDMAKADKARYEREMKTYIPPKGETKKKFKDPNAPKRLPSAFFLFCSEYRPKIKGEHPGLSIGDVAKKLGEMWNNTAADDKQPYEKKAAKLKEKYEKDIAAYRAKGKPDAAKKGVVKAEKSKKKKEEEEDEEDEEDEEEEEDEEDEEDEEEDDDDE |  | significantly stimulated TNF release |  |
| carboxyl-truncated HMGB1: Human HMGB1 mutant in which the carboxy terminus was deleted, SEQ ID NO: 19 (protein, listed as Homo sapiens) MGKGDPKKPTGKMSSYAFFVQTCREEHKKKHPDASVNFSEFSKKCSERWKTMSAKEKGKFEDMAKADKARYEREMKTYIPPKGETKKKFKDPNAPKRLPSAFFLFCSEYRPKIKGEHPGLSIGDVAKKLGEMWNNTAADDKQPYEKKAAKLKEKYEKDIAAYRAKGKPDAAKKGVVKAEKSK |  | significantly stimulated TNF release |  |

Reference: US20060121047A1, “Use of hmgb polypetides for increasing immune responses” (priority 2002, published 2006)
